Assays:
Settings in all cases: read-out: pI50 (converted)
Scenedesmus acutus [1] = assay: Peroxidizing phytotoxicity against Scenedesmus acutus assessed as ethane production after 20 hr; type: functional, organism-based
Scenedesmus acutus [2] = assay: Phytotoxicity against Scenedesmus acutus assessed as reduction in chlorophyll content by spectroscopy; type: functional, organism-based
Scenedesmus acutus [3] = assay: Growth inhibition of Scenedesmus acutus assessed as changes in packed cell volume; type: functional, organism-based
[4] = target: T1, Protoporphyrinogen IX oxidase (Zea mays, UniProt Q9FYV8); assay: Inhibition of protoporphyrinogen IX oxidase in Zea mays cv. Anjou (maize) seedlings homogenates assessed as protoporphyrinogen IX formation by spectrophotometry
T1 sequence (Q9FYV8 whole entry): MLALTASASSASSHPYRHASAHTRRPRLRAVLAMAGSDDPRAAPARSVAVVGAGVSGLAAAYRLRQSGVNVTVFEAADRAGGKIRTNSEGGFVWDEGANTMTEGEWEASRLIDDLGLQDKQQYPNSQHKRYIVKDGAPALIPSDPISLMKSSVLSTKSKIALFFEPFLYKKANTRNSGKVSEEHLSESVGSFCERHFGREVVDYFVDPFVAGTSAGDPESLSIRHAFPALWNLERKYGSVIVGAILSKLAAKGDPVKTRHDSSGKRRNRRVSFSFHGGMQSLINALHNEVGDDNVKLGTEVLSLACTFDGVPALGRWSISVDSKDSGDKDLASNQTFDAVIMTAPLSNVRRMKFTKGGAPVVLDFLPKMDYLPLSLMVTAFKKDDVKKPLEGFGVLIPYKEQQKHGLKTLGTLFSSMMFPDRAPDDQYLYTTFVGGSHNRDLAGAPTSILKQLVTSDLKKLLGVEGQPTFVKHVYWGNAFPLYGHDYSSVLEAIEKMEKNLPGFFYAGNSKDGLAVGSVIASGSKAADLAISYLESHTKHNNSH

IC50 [4]	SMILES	IC50 (Scenedesmus acutus [1])	IC50 (Scenedesmus acutus [2])	IC50 (Scenedesmus acutus [3])
1.82 nM	C#CCOc1cc(N2C(=O)C3=C(CCCC3)C2=O)c(F)cc1Cl	141 nM	15.8 nM	15.8 nM
3.72 nM	O=C1C2=C(CCCC2)C(=O)N1c1ccc(Cl)cc1F	240 nM	24.5 nM	37.2 nM
380 nM	O=C(O)c1cc(N2C(=O)C3=C(CCCC3)C2=O)c(F)cc1Cl	3160 nM	759 nM	1000 nM
3.89 nM	CCCOC(=O)c1cc(N2C(=O)C3=C(CCCC3)C2=O)c(F)cc1Cl	66.1 nM	89.1 nM	33.1 nM
1.38 nM	CC(C)OC(=O)c1cc(N2C(=O)C3=C(CCCC3)C2=O)c(F)cc1Cl	89.1 nM	57.5 nM	13.8 nM
8.91 nM	CCCCOC(=O)c1cc(N2C(=O)C3=C(CCCC3)C2=O)c(F)cc1Cl	141 nM	67.6 nM	126 nM
4.9 nM	CC(C)COC(=O)c1cc(N2C(=O)C3=C(CCCC3)C2=O)c(F)cc1Cl	407 nM	33.1 nM	100 nM
1860 nM	O=C(O)c1cc(N2C(=O)C3=C(CCCC3)C2=O)ccc1Cl	> 100000 nM	> 100000 nM	> 100000 nM
8.91 nM	COC(=O)c1cc(N2C(=O)C3=C(CCCC3)C2=O)ccc1Cl	1620 nM	2000 nM	1780 nM
2.19 nM	CCCOC(=O)c1cc(N2C(=O)C3=C(CCCC3)C2=O)ccc1Cl	661 nM	1860 nM	1120 nM
9.12 nM	CCCCOC(=O)c1cc(N2C(=O)C3=C(CCCC3)C2=O)ccc1Cl	7760 nM	3550 nM	6310 nM
4.79 nM	CC(C)COC(=O)c1cc(N2C(=O)C3=C(CCCC3)C2=O)ccc1Cl	15500 nM	759 nM	977 nM
2.51 nM	CCC(C)OC(=O)c1cc(N2C(=O)C3=C(CCCC3)C2=O)ccc1Cl (configuration not stated)	9770 nM	794 nM	1100 nM
7.59 nM	CCCCCOC(=O)c1cc(N2C(=O)C3=C(CCCC3)C2=O)ccc1Cl	5370 nM	9330 nM	4470 nM

The remaining lines, values behind:

SMILES	IC50 [4]	IC50 (Scenedesmus acutus [1])	IC50 (Scenedesmus acutus [2])	IC50 (Scenedesmus acutus [3])
C#CCOc1cc(N2C(=O)C3=C(CCCC3)C2=O)ccc1Cl	–	537 nM	79.4 nM	100 nM
COC(=O)c1cc(N2C(=O)C3=C(CCCC3)C2=O)c(F)cc1Cl	11.2 nM	170 nM	110 nM	67.6 nM
CCOC(=O)c1cc(N2C(=O)C3=C(CCCC3)C2=O)c(F)cc1Cl	4.17 nM	87.1 nM	100 nM	57.5 nM
CCC(C)OC(=O)c1cc(N2C(=O)C3=C(CCCC3)C2=O)c(F)cc1Cl (configuration not stated)	2.63 nM	74.1 nM	24.5 nM	60.3 nM
CCOC(=O)c1cc(N2C(=O)C3=C(CCCC3)C2=O)ccc1Cl	3.72 nM	2140 nM	1380 nM	1910 nM
CC(C)OC(=O)c1cc(N2C(=O)C3=C(CCCC3)C2=O)ccc1Cl	–	182 nM	1000 nM	1230 nM
CC(C)(C)OC(=O)c1cc(N2C(=O)C3=C(CCCC3)C2=O)ccc1Cl	28.2 nM	> 100000 nM	12900 nM	81300 nM
CCCCCCCCOC(=O)c1cc(N2C(=O)C3=C(CCCC3)C2=O)ccc1Cl	25.1 nM	> 100000 nM	> 100000 nM	> 100000 nM
COC(=O)c1cc(Oc2ccc(C(F)(F)F)cc2Cl)ccc1[N+](=O)[O-] [ACIFLUORFEN-METHYL]	2.19 nM	23.4 nM	61.7 nM	70.8 nM
O=C(O)c1cc(Oc2ccc(C(F)(F)F)cc2Cl)ccc1[N+](=O)[O-] [ACIFLUORFEN]	200 nM	1020 nM	1860 nM	5750 nM
O=C1C2=C(CCCC2)C(=O)N1c1ccc(Cl)cc1 [CHLOROPHTHALIUM]	–	912 nM	79.4 nM	100 nM

— ChEMBL document CHEMBL3044554, “Comparison of Phytotoxicities between 4-Fluorinated and Non-fluorinated 2-Chloro-5-(3, 4, 5, 6-tetrahydrophthalimido)benzoates” (J Pestic Sci, 1999)
